# According to ChEMBL document CHEMBL3425432, “Azide-alkyne cycloaddition-mediated cyclization of phosphonopeptides and their evaluation as PTP1B binders and enrichment tools” (Bioorg Med Chem, 2015):
# Activity calls are given as the source filed them. The calls are words filed in the database; no cut-off is given here. *1 amine or outer side, *2 acyl side, *3 side chain or, on linkers, in order; H or OH if unused. Where a SMILES comes first, the peptide text is derived from it. [ ]: non-standard residue; d: D form. The star is where a group is joined. F2Pmp = N[C@@H](Cc1ccc(C(F)(F)P(=O)(O)O)cc1)C(=O)O; Biotin = O=C1N[C@H]2[C@H](CS[C@H]2CCCCC(=O)*)N1; X1 = [N-]=[N+]=N[C@@H](CCCCN[*:1])C(=O)[*:2]; pY = N[C@@H](Cc1ccc(OP(=O)(O)O)cc1)C(=O)O; Hexanoyl(6-N3) = [N-]=[N+]=NCCCCCC(=O)*; Pra = C#CC[C@H](N)C(=O)O
# Assays:
# [1] = biological target: T1, Tyrosine-protein phosphatase non-receptor type 1 (Homo sapiens) (UniProt P18031); experiment: Binding affinity to PTP1B in human MCF7 cells by SDS-PAGE based pull-down assay; assay type: cell-based
# T1 sequence (whole entry): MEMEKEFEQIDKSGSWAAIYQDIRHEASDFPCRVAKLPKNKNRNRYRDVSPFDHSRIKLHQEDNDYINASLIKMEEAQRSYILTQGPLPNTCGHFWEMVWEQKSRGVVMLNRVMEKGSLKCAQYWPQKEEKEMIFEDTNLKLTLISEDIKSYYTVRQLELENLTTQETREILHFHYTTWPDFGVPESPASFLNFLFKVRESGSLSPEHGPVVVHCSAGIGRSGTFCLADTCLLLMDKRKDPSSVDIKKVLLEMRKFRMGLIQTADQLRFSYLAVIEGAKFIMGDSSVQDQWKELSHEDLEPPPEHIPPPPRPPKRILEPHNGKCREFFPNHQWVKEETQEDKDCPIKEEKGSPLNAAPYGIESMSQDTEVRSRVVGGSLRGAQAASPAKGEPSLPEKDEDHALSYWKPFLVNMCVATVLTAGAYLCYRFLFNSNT
# [2] = biological target: T2, Tyrosine-protein phosphatase non-receptor type 2 (Homo sapiens) (UniProt P17706); experiment: Binding affinity to TCPTP in human MCF7 cells by SDS-PAGE based pull-down assay; assay type: cell-based
# T2 sequence (whole entry): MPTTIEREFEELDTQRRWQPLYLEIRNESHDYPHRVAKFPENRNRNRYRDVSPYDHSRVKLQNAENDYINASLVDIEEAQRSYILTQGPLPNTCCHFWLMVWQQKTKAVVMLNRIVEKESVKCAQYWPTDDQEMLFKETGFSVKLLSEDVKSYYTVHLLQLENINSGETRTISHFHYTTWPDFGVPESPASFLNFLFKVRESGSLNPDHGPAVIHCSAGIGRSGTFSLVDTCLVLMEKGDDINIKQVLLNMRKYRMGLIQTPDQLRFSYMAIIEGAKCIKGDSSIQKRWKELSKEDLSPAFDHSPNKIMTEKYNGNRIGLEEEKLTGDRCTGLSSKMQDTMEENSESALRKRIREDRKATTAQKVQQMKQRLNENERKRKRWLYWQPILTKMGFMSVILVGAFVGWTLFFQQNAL
# [3] = biological target: Proto-oncogene tyrosine-protein kinase Src (Homo sapiens) (UniProt P12931); experiment: Binding affinity to c-Src in human MCF7 cells by SDS-PAGE based pull-down assay; assay type: cell-based
# Chain of Proto-oncogene tyrosine-protein kinase Src (Homo sapiens) (P12931 2-536 limits assumed): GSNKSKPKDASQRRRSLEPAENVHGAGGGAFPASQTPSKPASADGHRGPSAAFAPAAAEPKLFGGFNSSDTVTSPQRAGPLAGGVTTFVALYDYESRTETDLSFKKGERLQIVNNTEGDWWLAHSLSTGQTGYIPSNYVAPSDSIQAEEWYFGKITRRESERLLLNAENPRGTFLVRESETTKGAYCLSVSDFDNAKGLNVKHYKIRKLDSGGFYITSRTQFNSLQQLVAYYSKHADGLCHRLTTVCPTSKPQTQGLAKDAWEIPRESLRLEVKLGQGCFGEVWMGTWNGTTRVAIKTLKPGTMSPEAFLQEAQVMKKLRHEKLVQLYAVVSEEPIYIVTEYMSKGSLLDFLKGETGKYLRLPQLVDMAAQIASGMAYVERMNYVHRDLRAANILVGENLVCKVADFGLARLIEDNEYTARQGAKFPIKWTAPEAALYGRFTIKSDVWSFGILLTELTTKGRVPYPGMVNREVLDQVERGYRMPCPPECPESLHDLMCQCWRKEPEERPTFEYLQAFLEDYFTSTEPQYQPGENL
# [4] = Retention time of the compound by HPLC method; assay type: physicochemical
# [5] = biological target: Receptor-type tyrosine-protein phosphatase alpha (Homo sapiens) (UniProt P18433); experiment: Binding affinity to PTPalpha in human MCF7 cells by SDS-PAGE based pull-down assay; assay type: cell-based
# Chain of Receptor-type tyrosine-protein phosphatase alpha (Homo sapiens) (P18433 20-802 limits assumed): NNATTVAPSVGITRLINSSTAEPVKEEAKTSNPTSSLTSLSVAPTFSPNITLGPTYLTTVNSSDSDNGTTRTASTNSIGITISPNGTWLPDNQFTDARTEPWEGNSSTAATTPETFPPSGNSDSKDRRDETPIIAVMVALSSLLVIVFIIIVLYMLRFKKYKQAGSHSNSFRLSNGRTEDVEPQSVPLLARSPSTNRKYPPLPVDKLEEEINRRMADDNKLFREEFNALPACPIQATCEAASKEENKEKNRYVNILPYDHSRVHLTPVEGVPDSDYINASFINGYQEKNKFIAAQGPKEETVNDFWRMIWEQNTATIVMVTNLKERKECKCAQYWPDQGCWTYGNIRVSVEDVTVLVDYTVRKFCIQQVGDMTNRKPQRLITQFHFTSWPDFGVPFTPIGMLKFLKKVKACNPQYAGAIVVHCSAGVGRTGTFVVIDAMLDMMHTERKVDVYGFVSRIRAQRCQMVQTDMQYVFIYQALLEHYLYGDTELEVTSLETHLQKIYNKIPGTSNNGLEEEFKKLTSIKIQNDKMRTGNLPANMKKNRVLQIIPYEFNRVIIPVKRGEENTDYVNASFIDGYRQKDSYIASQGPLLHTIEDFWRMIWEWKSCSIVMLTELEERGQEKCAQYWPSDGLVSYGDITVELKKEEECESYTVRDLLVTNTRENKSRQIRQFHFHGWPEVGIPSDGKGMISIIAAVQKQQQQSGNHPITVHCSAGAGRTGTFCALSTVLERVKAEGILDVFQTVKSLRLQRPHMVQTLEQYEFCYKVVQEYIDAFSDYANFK
# [6] = biological target: T1, Tyrosine-protein phosphatase non-receptor type 1 (Homo sapiens); experiment: Binding affinity to PTP1B in human U2OS cells by SDS-PAGE based pull-down assay; assay type: cell-based
SMILES,Activity [1],Activity [2],Activity [3],Retention_time [4] [min],Activity [5],Activity [6]
CC(=O)N[C@@H](CCCCNC(=O)CCCC[C@@H]1SC[C@@H]2NC(=O)N[C@@H]21)C(=O)N[C@@H](CCC(=O)O)C(=O)N1CCC[C@H]1C(=O)N[C@@H](CCC(N)=O)C(=O)N[C@@H](Cc1ccc(OP(=O)(O)O)cc1)C(=O)N[C@@H](CCC(N)=O)C(=O)N1CCC[C@H]1C(=O)NCC(=O)N[C@@H](CCC(=O)O)C(=O)N[C@@H](CC(N)=O)C(=O)N[C@@H](CC(C)C)C(N)=O (Ac-K(Biotin)EPQ[pY]QPGENL-NH2),inactive,inactive,inactive,6.6,inactive,–
CC(=O)N[C@@H](CCCCNC(=O)CCCC[C@@H]1SC[C@@H]2NC(=O)N[C@@H]21)C(=O)N[C@@H](CCC(=O)O)C(=O)N1CCC[C@H]1C(=O)N[C@@H](CCC(N)=O)C(=O)N[C@@H](Cc1ccc(C(F)(F)P(=O)(O)O)cc1)C(=O)N[C@@H](CCC(N)=O)C(=O)N1CCC[C@H]1C(=O)NCC(=O)N[C@@H](CCC(=O)O)C(=O)N[C@@H](CC(N)=O)C(=O)N[C@@H](CC(C)C)C(N)=O (Ac-K(Biotin)EPQ[F2Pmp]QPGENL-NH2),–,–,–,9.1,–,Active
C#CC[C@H](NC(=O)[C@H](CC(N)=O)NC(=O)[C@H](CCC(=O)O)NC(=O)CNC(=O)[C@@H]1CCCN1C(=O)[C@H](CCC(N)=O)NC(=O)[C@H](Cc1ccc(C(F)(F)P(=O)(O)O)cc1)NC(=O)[C@H](CCC(N)=O)NC(=O)[C@@H]1CCCN1C(=O)[C@H](CCC(=O)O)NC(=O)[C@H](CCCCNC(=O)CCCC[C@@H]1SC[C@@H]2NC(=O)N[C@@H]21)N=[N+]=[N-])C(N)=O (Biotin-[X1]EPQ[F2Pmp]QPGEN[Pra]-NH2),–,–,–,8.8,–,inactive
CC(C)C[C@H](NC(=O)[C@H](CC(N)=O)NC(=O)[C@H](CCC(=O)O)NC(=O)CNC(=O)[C@@H]1CCCN1C(=O)[C@H](CCC(N)=O)NC(=O)[C@H](Cc1ccc(C(F)(F)P(=O)(O)O)cc1)NC(=O)[C@H](CCC(N)=O)NC(=O)[C@@H]1CCCN1C(=O)[C@H](CCC(=O)O)NC(=O)CCCC[C@@H]1SC[C@@H]2NC(=O)N[C@@H]21)C(N)=O (Biotin-EPQ[F2Pmp]QPGENL-NH2),–,–,–,8,–,inactive
NC(=O)CC[C@@H]1NC(=O)[C@@H]2CCCN2C(=O)[C@H](CCC(=O)O)NC(=O)[C@@H](CCCCNC(=O)CCCC[C@@H]2SC[C@@H]3NC(=O)N[C@@H]32)n2cc(nn2)C[C@H](C(N)=O)NC(=O)[C@H](CC(N)=O)NC(=O)[C@H](CCC(=O)O)NC(=O)CNC(=O)[C@@H]2CCCN2C(=O)[C@H](CCC(N)=O)NC(=O)[C@H](Cc2ccc(O)cc2)NC1=O,inactive,inactive,inactive,9.5,inactive,inactive
NC(=O)CC[C@@H]1NC(=O)[C@@H]2CCCN2C(=O)[C@H](CCC(=O)O)NC(=O)[C@@H](CCCCNC(=O)CCCC[C@@H]2SC[C@@H]3NC(=O)N[C@@H]32)NC(=O)CCCCCn2cc(nn2)C[C@H](C(N)=O)NC(=O)[C@H](CC(N)=O)NC(=O)[C@H](CCC(=O)O)NC(=O)CNC(=O)[C@@H]2CCCN2C(=O)[C@H](CCC(N)=O)NC(=O)[C@H](Cc2ccc(C(F)(F)P(=O)(O)O)cc2)NC1=O,Active,Active,inactive,7.1,inactive,Active
NC(=O)CC[C@@H]1NC(=O)[C@@H]2CCCN2C(=O)[C@H](CCC(=O)O)NC(=O)[C@@H](CCCCNC(=O)CCCC[C@@H]2SC[C@@H]3NC(=O)N[C@@H]32)n2cc(nn2)C[C@H](C(N)=O)NC(=O)[C@H](CC(N)=O)NC(=O)[C@H](CCC(=O)O)NC(=O)CNC(=O)[C@@H]2CCCN2C(=O)[C@H](CCC(N)=O)NC(=O)[C@H](Cc2ccc(C(F)(F)P(=O)(O)O)cc2)NC1=O,–,–,–,7.1,–,Active
C#CC[C@H](NC(=O)[C@H](CC(N)=O)NC(=O)[C@H](CCC(=O)O)NC(=O)CNC(=O)[C@@H]1CCCN1C(=O)[C@H](CCC(N)=O)NC(=O)[C@H](Cc1ccc(C(F)(F)P(=O)(O)O)cc1)NC(=O)[C@H](CCC(N)=O)NC(=O)[C@@H]1CCCN1C(=O)[C@H](CCC(=O)O)NC(=O)[C@H](CCCCNC(=O)CCCC[C@@H]1SC[C@@H]2NC(=O)N[C@@H]21)NC(=O)CCCCCN=[N+]=[N-])C(N)=O ({Hexanoyl(6-N3)}-K(Biotin)EPQ[F2Pmp]QPGEN[Pra]-NH2),–,–,–,9.5,–,inactive
NC(=O)CC[C@@H]1NC(=O)[C@@H]2CCCN2C(=O)[C@H](CCC(=O)O)NC(=O)[C@@H](CCCCNC(=O)CCCC[C@@H]2SC[C@@H]3NC(=O)N[C@@H]32)NC(=O)CCCCCn2cc(nn2)C[C@H](C(N)=O)NC(=O)[C@H](CC(N)=O)NC(=O)[C@H](CCC(=O)O)NC(=O)CNC(=O)[C@@H]2CCCN2C(=O)[C@H](CCC(N)=O)NC(=O)[C@H](Cc2ccc(O)cc2)NC1=O,–,–,–,8.5,–,inactive
